# Literature values as cited in patent US6043276A (Georgetown University School of Medicine, priority 1999, dated 2000).
# Tests used:
# RT for HIV = settings: Kreis et al. 1990; cited from earlier work
# xanthine oxidase = settings: Chan et al. 1995; Chang et al. 1994; cited from earlier work
# [1] = tested on: integrase protein of HIV-1; settings: Fesen et al.; Burke et al.; Mazumder et al.; cited from earlier work
# [2] = Lin et al. 1996; cited from earlier work
# HIV = settings: literature; cited from earlier work
compound,measurement,setting,value
O=C(O)/C=C/c1ccc(O)c(O)c1 [Caffeic acid],"antiviral activity, RT assay for HIV",RT for HIV,has antiviral activity
same,xanthine oxidase inhibition,xanthine oxidase,inhibit xanthine oxidase
"O=C(/C=C/c1ccc(O)c(O)c1)OCCc1ccccc1 [CAPE, Caffeic acid phenethyl esters]",inhibitory activity on the integrase protein of HIV-1,[1],exert inhibitory activity
acetylsalvianolic acid,antioxidant properties,[2],antioxidant properties
O=C(/C=C/c1ccc(O)c(O)c1/C=C/c1ccc(O)c(O)c1)O[C@H](Cc1ccc(O)c(O)c1)C(=O)O [salvianolic acid A],antioxidant properties,[2],antioxidant properties
O=C(/C=C/c1ccc(O)c(O)c1)O[C@H](Cc1ccc(O)c(O)c1)C(=O)O [Rosemarinic acid],anti-HIV activity,HIV,possesses anti-HIV activity
